Assay results taken from patent publication US20260256733A1, “COMPOSITIONS AND METHODS FOR MODULATING STRESS AND USES THEREOF” (BRIGHTSEED, INC., priority 2023, published 2026).

Legend:
[1] = molecular target: T1, mGlu2 (Homo sapiens, UniProt Q14416); assay: Standardized bioassay protocol, mGluR2 antagonist/NAM assay; assay type: cell-based; settings: for Activity Level: 20 μM, mGlu2 activity, control at 100%, greater than control indicates NAM or antagonist; for Bioactivity Class: assay performed at 20 μM
Protocol: (§1) A standardized bioassay protocol was followed as illustrated in FIG. 3. In the standardized bioassay protocol, an assay buffer of HBSS with 1% HEPES was used. Cells were seeded overnight at 10,000 cells/well in 20 μl plating reagent. Controls for the experiment were an agonist of L-glutamic acid (AC156212500), agonist of LY354740 (fisher part #: 32-465-0), antagonist of LY341495 (fisher part #: 12-095-0), PAM of BINA (fisher part #: 40-485-0), and NAM of (decoglurant (fisher part #: 50-203-0742).
(§2) The results are illustrated in Table 7 and FIGS. 4 and 5. FIG. 4 illustrates mGlu2 activity greater than control (dotted red line at 100%) is indicative of an mGlu2 negative allosteric modulator or antagonist. The assay was performed at 20 μM. FIG. 5 illustrates mGlu2 activity less than the control (at 100%) is indicative of a mGlu2 positive allosteric modulator or agonist. The assay was performed at 100 μM.

[2] = molecular target: T1, mGlu2; assay: Standardized bioassay protocol, mGluR2 agonist/PAM assay; assay type: cell-based; settings: for Activity Level: 100 μM, mGlu2 activity, control at 100%, less than control indicates PAM or agonist; for Bioactivity Class: assay performed at 100 μM
Protocol: as §1, §2

T1 sequence (Q14416 19-872): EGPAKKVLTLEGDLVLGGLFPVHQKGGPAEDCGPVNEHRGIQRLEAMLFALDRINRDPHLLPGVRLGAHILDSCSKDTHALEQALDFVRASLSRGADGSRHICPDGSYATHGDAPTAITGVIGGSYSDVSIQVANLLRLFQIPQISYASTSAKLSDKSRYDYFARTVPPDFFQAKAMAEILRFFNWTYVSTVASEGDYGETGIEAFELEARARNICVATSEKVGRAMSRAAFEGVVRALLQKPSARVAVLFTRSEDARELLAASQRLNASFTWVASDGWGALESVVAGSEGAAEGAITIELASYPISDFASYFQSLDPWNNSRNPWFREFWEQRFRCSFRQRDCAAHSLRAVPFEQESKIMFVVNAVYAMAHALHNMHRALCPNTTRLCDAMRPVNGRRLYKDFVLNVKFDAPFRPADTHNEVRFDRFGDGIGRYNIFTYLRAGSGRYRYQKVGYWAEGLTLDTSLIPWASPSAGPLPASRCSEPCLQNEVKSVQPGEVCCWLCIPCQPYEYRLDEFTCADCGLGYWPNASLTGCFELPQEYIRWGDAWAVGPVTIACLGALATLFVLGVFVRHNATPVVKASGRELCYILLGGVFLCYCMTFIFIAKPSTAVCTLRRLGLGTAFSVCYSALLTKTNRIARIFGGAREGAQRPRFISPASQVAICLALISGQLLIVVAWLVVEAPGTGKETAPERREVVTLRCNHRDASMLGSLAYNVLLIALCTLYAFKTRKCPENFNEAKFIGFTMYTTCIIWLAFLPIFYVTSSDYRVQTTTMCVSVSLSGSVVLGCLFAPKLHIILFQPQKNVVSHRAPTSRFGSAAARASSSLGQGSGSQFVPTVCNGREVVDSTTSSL

## O=C1c2cccc(O)c2C(=O)C2C(O)=CC(CO)=CC12 (stereo not drawn) [Compound 4]
[1]
  Activity Level: 20 μM/191.200%
  Bioactivity Class: Antagonist/NAM

## O=C1c2cccc(O)c2C(=O)c2c(O)cccc21 [Compound 6]
[1]
  Activity Level: 20 μM/142.558%
  Bioactivity Class: Antagonist/NAM

## CC(=O)Oc1cccc2c1C(=O)c1c(OC(C)=O)cc(C(=O)O)cc1C2=O [Compound 7]
[1]
  Activity Level: 20 μM/195.543%
  Bioactivity Class: Antagonist/NAM

## O=C(O)c1cc(O)c2c(c1)C(=O)c1cccc(O)c1C2=O [Compound 8]
[1]
  Activity Level: 20 μM/749.225%
  Bioactivity Class: Antagonist/NAM

## COc1cc(O[C@@H]2O[C@H](CO)[C@@H](O)[C@H](O)[C@H]2O)c2c(O)c(C(C)=O)c(C)cc2c1 [Compound 9]
[1]
  Activity Level: 20 μM/107.501%
  Bioactivity Class: Antagonist/NAM

## Cn1c(=O)[nH]c(=O)c2[nH]cnc21 [Compound 10]
[1]
  Activity Level: 20 μM/152.609%
  Bioactivity Class: Antagonist/NAM

## Cn1cnc2c1c(=O)[nH]c(=O)n2C [Compound 11]
[1]
  Activity Level: 20 μM/153.003%
  Bioactivity Class: Antagonist/NAM

## COC(=O)C1OC(=O)c2cc(O)c(O)c(O)c2C1C(CC(=O)O)C(=O)OC1C(COC(=O)c2ccc(O)c(O)c2)OC(OC(=O)c2cc(O)c(O)c(O)c2)C(O)C1OC(=O)c1cc(O)c(O)c(O)c1 (stereo not drawn) [Compound 12]
[2]
  Activity Level: 100 μM/25.688%
  Bioactivity Class: Agonist/PAM

## Cc1cc(O)c2c(c1)C(=O)c1cc(O)cc(O)c1C2=O [Compound 13]
[2]
  Activity Level: 100 μM/9.870%
  Bioactivity Class: Agonist/PAM
